Source: the NIST ThermoML archive (doi:10.1016/j.jct.2011.11.014)
± gives the expanded uncertainty stated by the source.

Assay: mn = molality of the nth substance listed, in mol/kg
Details: 101.3 kPa, Liquid; for speed of sound: Sing-around technique in a fixed-path interferometer; for mass density: Vibrating tube method

COC(=O)CC(=O)[O-].[K+] [potassium 3-methoxy-3-oxopropanoate] + O
Details	mass density, 303.15 K [kg/m3]	mass density, 308.15 K [kg/m3]	mass density, 313.15 K [kg/m3]	speed of sound, 303.15 K [m/s]	speed of sound, 308.15 K [m/s]	speed of sound, 313.15 K [m/s]
m1 = 0.0128	996.543 ± 0.17	994.92 ± 0.17	993.096 ± 0.15	1510.4 ± 2.2	1520.9 ± 2.2	1530 ± 2.1
m1 = 0.0148	996.691 ± 0.14	995.066 ± 0.15	993.243 ± 0.15	1510.6 ± 2.2	1521.2 ± 2.2	1530.2 ± 2.1
m1 = 0.0189	996.967 ± 0.14	995.341 ± 0.15	993.515 ± 0.15	1511 ± 2.2	1521.5 ± 2.2	1530.5 ± 2.1
m1 = 0.0253	997.423 ± 0.14	995.793 ± 0.14	993.962 ± 0.15	1511.6 ± 2.2	1522.1 ± 2.2	1531.1 ± 2.1
m1 = 0.0316	997.862 ± 0.14	996.226 ± 0.14	994.391 ± 0.15	1512.2 ± 2.2	1522.7 ± 2.2	1531.6 ± 2.1
m1 = 0.0444	998.743 ± 0.14	997.101 ± 0.14	995.26 ± 0.15	1513.3 ± 2.2	1523.7 ± 2.2	1532.6 ± 2.1
m1 = 0.0512	999.236 ± 0.14	997.589 ± 0.15	995.745 ± 0.15	1514 ± 2.2	1524.4 ± 2.2	1533.2 ± 2.1
m1 = 0.0637	1000.1 ± 0.14	998.449 ± 0.14	996.599 ± 0.15	1515.2 ± 2.2	1525.5 ± 2.2	1534.3 ± 2.1
m1 = 0.0836	1001.46 ± 0.14	999.794 ± 0.14	997.933 ± 0.15	1517 ± 2.2	1527.1 ± 2.2	1535.8 ± 2.1
m1 = 0.1286	1004.57 ± 0.14	1002.88 ± 0.15	1001 ± 0.15	1521.1 ± 2.2	1531 ± 2.2	1539.5 ± 2.1
m1 = 0.1868	1008.52 ± 0.14	1006.79 ± 0.15	1004.88 ± 0.15	1526.2 ± 2.2	1535.8 ± 2.2	1543.9 ± 2.1
m1 = 0.2644	1013.64 ± 0.14	1011.88 ± 0.15	1009.93 ± 0.15	1532.9 ± 2.2	1542.1 ± 2.2	1549.9 ± 2.2
m1 = 0.3285	1017.84 ± 0.15	1016.04 ± 0.15	1014.06 ± 0.15	1538.5 ± 2.2	1547.4 ± 2.2	1554.9 ± 2.2
m1 = 0.3591	1019.76 ± 0.14	1017.95 ± 0.15	1015.96 ± 0.15	1540.8 ± 2.2	1549.5 ± 2.2	1556.8 ± 2.2
